Results from patent US5280548A, “Emission based fiber optic sensors for pH and carbon dioxide analysis” (BOC Health Care, Inc., priority 1993, dated 1994).
“Also recorded” adds a separate entry of the source. Like-named read-outs stand apart in the source and are kept apart here.

Key:
[1] = pKa determination from pH-dependent emission; format: physicochemical
Description: (§1) The effect of temperature on the parameters describing the pH dye was determined. […] The emission spectra were measured as a function of pH at 20° C., 25° C., 30° C., 37° C., and 45° C. […] The relative emission intensity, B, was defined as the ratio of the emission from the base tautomer at 650 nm to the emission from the isosbestic point. The relative emission, A, was defined as the ratio of the isosbestic point emission to the emission from the acid tautomer at 650 nm. The quantities A and B define the upper and lower asymptotes on the response vs. pH sigmoidal curve. The pKa, A, and B were determined for the series of emission spectra at each temperature by fitting the emission intensity at 650 nm to the theoretical response vs. pH curve using non-linear regression.

[2] = Emission lifetime measurement; format: physicochemical; conditions: for lifetime (τ): 25° C.
Description: 1969, 31, 1-13], as a standard.

Absorption spectra = format: physicochemical; conditions: 25° C.
Description: Absorption spectra were recorded on a Perkin-Elmer Lambda 5 spectrophotometer.

[3] = Effect of temperature on emission parameters A and B of the pH dye; format: physicochemical; conditions: for A (relative emission, lower asymptote of response vs. pH) / B (relative emission intensity, base tautomer / isosbestic point): 650 nm
Description: as §1

Solubility observations = format: physicochemical
Description: The polymers prepared above were soluble in acetone, dioxane, tetrahydrofuran, ethanol, and dimethylacetamide. A concentrated solution of the polymer in one of these solvents was prepared and applied to the distal tip of a methacrylate optical fiber, the tip of which had been prepared by cleaving normal to its longitudinal axis with a fresh scalpel blade. The sensors were allowed to dry overnight before use.

[4] = for emission yield (Φ): 25° C.
Description: Emission spectra were recorded on either a ISS Greg-200 spectrofluorometer or a single-fiber spectrofluorometer discussed below. Absorption spectra were recorded on a Perkin-Elmer Lambda 5 spectrophotometer. Lifetime measurements were recorded with the ISS Greg-200 spectrofluorometer using excitation by a Coherent 700 Dye Laser with Rhodamine 6G synchronously pumped with a frequency doubled Coherent Antares mode-locked Nd:YAG laser. The mode-locker was driven by a Marconi Instruments 2022a frequency synthesizer locked in phase to another Marconi Instruments 2022a frequency synthesizer which modulated the photomultiplier tubes on the Greg-200 instrument.
Emission yields were corrected for instrument response and measured using tetraphenylporphyrin in benzene, .PHI.=0.11 [Seybold, Paul G.; Gouterman, Martin J. Mol. Spectrosc. 1969, 31, 1-13], as a standard. Lifetime measurements were calibrated with scattered light, .tau.=0. […] The output from the laser was measured before and after the experiment to ensure constant excitation intensity.

[5] = 25° C.; cited from earlier work
[6] = aqueous solution, 540 nm excitation

Compound: seminaphthorhodaflor-1-carboxylate [SNARF-1C]
- pKa ([1]; 20° C. (Table 2)): 7.79 ± .03
- pKa ([1]; 25° C. (Table 1)): 7.58 ± 0.04
- pKa ([1]; 25° C. (Table 2)): 7.58 ± .01
- pKa ([1]; 30° C. (Table 2)): 7.57 ± .03
- pKa ([1]; 37° C. (Table 1)): 7.44 ± 0.05
- pKa ([1]; 37° C. (Table 2)): 7.44 ± .04
- pKa ([1]; 45° C. (Table 2)): 7.43 ± .06
- emission lifetime, in words [2]: The emission lifetimes are insensitive to concentration; also recorded: The lifetime of the acid tautomer of SNARF-1C is shorter than that for the base tautomer
- lifetime (τ) ([2]; acid form, Conc. 10e-6 M): .80 ns
- lifetime (τ) ([2]; acid form, Conc. 10e-5 M): .80 ns
- lifetime (τ) ([2]; acid form, Conc. 10e-4 M): .78 ns
- lifetime (τ) ([2]; base form, Conc. 10e-6 M): 1.38 ns
- lifetime (τ) ([2]; base form, Conc. 10e-5 M): 1.41 ns
- lifetime (τ) ([2]; base form, Conc. 10e-4 M): 1.26 ns
- lifetime, acid tautomer ([2]; acid tautomer): 800 psec
- lifetime of acid tautomer, difference from previous measurement ([2]; vs. Whitaker et al. 1991): 200 psec
- lambda max (Absorption spectra; acid form, Conc. 10e-6 M): 551 nm
- ε (Absorption spectra; acid form, Conc. 10e-6 M): 19920 M⁻¹ cm⁻¹
- lambda max (Absorption spectra; acid form, Conc. 10e-5 M): 553 nm
- ε (Absorption spectra; acid form, Conc. 10e-5 M): 19380 M⁻¹ cm⁻¹
- lambda max (Absorption spectra; acid form, Conc. 10e-4 M): 549 nm
- ε (Absorption spectra; acid form, Conc. 10e-4 M): 12650 M⁻¹ cm⁻¹
- lambda max (Absorption spectra; base form, Conc. 10e-6 M): 577 nm
- ε (Absorption spectra; base form, Conc. 10e-6 M): 38220 M⁻¹ cm⁻¹
- lambda max (Absorption spectra; base form, Conc. 10e-5 M): 576 nm
- ε (Absorption spectra; base form, Conc. 10e-5 M): 37510 M⁻¹ cm⁻¹
- lambda max (Absorption spectra; base form, Conc. 10e-4 M): 572 nm
- ε (Absorption spectra; base form, Conc. 10e-4 M): 27770 M⁻¹ cm⁻¹
- A and B vs. temperature, in words ([3]; 20-45° C.): independent of temperature
- A (relative emission, lower asymptote of response vs. pH) ([3]; 20° C.): .721 ± .062
- B (relative emission intensity, base tautomer / isosbestic point) ([3]; 20° C.): 5.07 ± .11
- A (relative emission, lower asymptote of response vs. pH) ([3]; 25° C.): .628 ± .061
- B (relative emission intensity, base tautomer / isosbestic point) ([3]; 25° C.): 4.22 ± .10
- A (relative emission, lower asymptote of response vs. pH) ([3]; 30° C.): .678 ± .072
- B (relative emission intensity, base tautomer / isosbestic point) ([3]; 30° C.): 4.95 ± .12
- A (relative emission, lower asymptote of response vs. pH) ([3]; 37° C.): .702 ± .069
- B (relative emission intensity, base tautomer / isosbestic point) ([3]; 37° C.): 4.10 ± .11
- A (relative emission, lower asymptote of response vs. pH) ([3]; 45° C.): .674 ± .127
- B (relative emission intensity, base tautomer / isosbestic point) ([3]; 45° C.): 5.48 ± .19
- solubility, in words (Solubility observations): The potassium salt of the acid was much easier to dissolve
- emission yield (Φ) ([4]; acid form, Conc. 10e-6 M): .12
- emission yield (Φ) ([4]; acid form, Conc. 10e-5 M): .12
- emission yield (Φ) ([4]; acid form, Conc. 10e-4 M): .018
- emission yield (Φ) ([4]; base form, Conc. 10e-6 M): .2
- emission yield (Φ) ([4]; base form, Conc. 10e-5 M): .22
- emission yield (Φ) ([4]; base form, Conc. 10e-4 M): .082
- emission maximum, acid peak [4, 6]: 590 nm
- emission maximum, base peak [4, 6]: 640 nm
- isosbestic point ([4]; emission spectra as a function of pH): 605 nm
- emission spectra, in words ([4]; shift of spectra): do not differ from the previously published spectra; also recorded: did not shift with temperature

Compound: O=C=O [carbon dioxide]
- pKa1 [5]: 6.35
- pKa2 [5]: 10.33
- solubility in water [5]: 0.759 ml carbon dioxide @ STP/ml water
